Measured values from patent US20260285850A1, “SUBSTITUTED OXAZOLIDINONES AND IMIDAZOLINONES AS HERBICIDES” (FMC CORPORATION, priority 2023, published 2026).

Columns and labels:
Assay type in all cases: in vivo
[1] = system: kochia (Bassia scoparia); experiment: Test A preemergence soil spray, visual injury rating 0-100; details: 10 days
How it was run: (§1)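 Loam-sand pots got test material in surfactant-containing solvent, either as a directed soil spray before emergence or on plants at the one- to two-leaf stage. Visual injury (0-100) was read after ten greenhouse days.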

[2] = system: wheat (Triticum aestivum); experiment: as above; details: 10 days
How it was run: as §1

[3] = system: palmer (palmer amaranth, palmer pigweed, Amaranthus palmeri); experiment: as above; details: 10 days
How it was run: as §1

[4] = system: ryegrass, Italian (italian ryegrass, Lolium multiflorum); experiment: as above; details: 10 days
How it was run: as §1

[5] = system: barnyardgrass (Echinochloa crus-galli); experiment: as above; details: 10 days
How it was run: as §1

[6] = system: corn (Zea mays); experiment: as above; details: 10 days
How it was run: as §1

[7] = system: soybean (Glycine max); experiment: as above; details: 10 days
How it was run: as §1

[8] = system: oat, wild (wild oat, Avena fatua); experiment: as above; details: 10 days
How it was run: as §1

[9] = system: ragweed (common ragweed, Ambrosia artemisiifolia); experiment: as above; details: 10 days
How it was run: as §1

[10] = system: blackgrass (Alopecurus myosuroides); experiment: as above; details: 10 days
How it was run: as §1

[11] = system: green foxtail (Setaria viridis); experiment: as above; details: 10 days
How it was run: as §1

[12] = system: sedge, umbrella (small-flower umbrella sedge, Cyperus difformis); experiment: Test B flooded paddy test, visual plant response rating 0-100; details: 250 g ai/ha, Flood, applied to paddy water, evaluated after 13 days
How it was run: (§2)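 Plants were grown to the 2-leaf stage, then pots were flooded to 3 cm above the soil and compound was applied directly to the paddy water, with that depth kept throughout.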

[13] = system: ducksalad (Heteranthera limosa); experiment: as above; details: 250 g ai/ha, Flood, applied to paddy water, evaluated after 13 days
How it was run: as §2

[14] = system: rice (Oryza sativa); experiment: as above; details: 250 g ai/ha, Flood, applied to paddy water, evaluated after 13 days
How it was run: as §2

[15] = system: barnyardgrass (Echinochloa crusgalli); experiment: as above; details: 250 g ai/ha, Flood, applied to paddy water, evaluated after 13 days
How it was run: as §2

[16] = system: kochia (Bassia scoparia); experiment: Test A postemergence application, visual injury rating 0-100
How it was run: as §1

[17] = system: horseweed (Erigeron canadensis); experiment: as above
How it was run: as §1

[18] = system: wheat (Triticum aestivum); experiment: as above
How it was run: as §1

[19] = system: palmer (palmer amaranth, palmer pigweed, Amaranthus palmeri); experiment: as above
How it was run: as §1

[20] = system: galium (catchweed bedstraw, Galium aparine); experiment: as above
How it was run: as §1

[21] = system: ryegrass, Italian (italian ryegrass, Lolium multiflorum); experiment: as above
How it was run: as §1

[22] = system: barnyardgrass (Echinochloa crus-galli); experiment: as above
How it was run: as §1

[23] = system: corn (Zea mays); experiment: as above
How it was run: as §1

[24] = system: soybean (Glycine max); experiment: as above
How it was run: as §1

[25] = system: oat, wild (wild oat, Avena fatua); experiment: as above
How it was run: as §1

[26] = system: ragweed (common ragweed, Ambrosia artemisiifolia); experiment: as above
How it was run: as §1

[27] = system: blackgrass (Alopecurus myosuroides); experiment: as above
How it was run: as §1

[28] = system: green foxtail (Setaria viridis); experiment: as above
How it was run: as §1

[29] = 62 g ai/ha, 0 = no effect, 100 = complete control
[30] = 125 g ai/ha, 0 = no effect, 100 = complete control
[31] = 62 g ai/ha, postemergence, 10 days, 0 = no effect, 100 = complete control
[32] = Postemergence, 16 g ai/ha, greenhouse 10 days, 0 no effect, 100 complete control

CC(C)COC(=O)C1=CCC(NC(=O)C2(C)CN(c3cc(F)cc(F)c3)C(=O)O2)C1 (centres unmarked) [Compound 98]
65: Plant response rating, Barnyardgrass (0 to 100 scale, 0 is no effect and 100 is complete control) [15]
30: Wheat plant response rating ([2]; 16 g ai/ha, 0 to 100 scale)
75: Plant response rating, Ducksalad (0 to 100 scale, 0 is no effect and 100 is complete control) [13]
40: Oat, Wild plant response rating (0-100) [8, 29]
70: Wheat plant response rating (0 to 100 scale) [2, 30] | Barnyardgrass plant response rating (0 to 100 scale) [5, 30] | Foxtail, Green plant response rating ([11]; 16 g ai/ha, 0 to 100 scale) | Plant response rating, Rice (0 to 100 scale, 0 is no effect and 100 is complete control) [14] | Wheat plant response rating (0 to 100 scale) [18, 32] | Pigweed, Palmer plant response rating (0 to 100 scale) [19, 32]
10: Pigweed, Palmer plant response rating ([3]; 16 g ai/ha, 0 to 100 scale) | Barnyardgrass plant response rating ([5]; 16 g ai/ha, 0 to 100 scale) | Soybean plant response rating (0 to 100 scale) [7, 30] | Blackgrass plant response rating ([10]; 16 g ai/ha, 0 to 100 scale)
50: Pigweed, Palmer plant response rating (0-100) [3, 29] | Soybean plant response rating (0-100) [7, 29] | Ragweed plant response rating (0 to 100 scale) [9, 30] | Blackgrass plant response rating (0-100) [10, 29] | Soybean plant response rating (0 to 100 scale) [24, 32] | Ragweed plant response rating (0 to 100 scale) [26, 32]
90: Kochia plant response rating (0-100) [1, 29] | Kochia plant response rating (0 to 100 scale) [1, 30] | Wheat plant response rating (0-100) [2, 29] | Barnyardgrass plant response rating (0-100) [5, 29] | Corn plant response rating (0-100) [6, 29] | Kochia plant response rating (0-100) [16, 31] | Pigweed, Palmer plant response rating (0-100) [19, 31] | Galium plant response rating (0-100) [20, 31] | Ryegrass, Italian plant response rating (0-100) [21, 31] | Corn plant response rating (0 to 100 scale) [23, 32] | Blackgrass plant response rating (0-100) [27, 31] | Foxtail, Green plant response rating (0-100) [28, 31]
80: Kochia plant response rating ([1]; 16 g ai/ha, 0 to 100 scale) | Ryegrass, Italian plant response rating (0-100) [4, 29] | Ryegrass, Italian plant response rating (0 to 100 scale) [4, 30] | Kochia plant response rating (0 to 100 scale) [16, 32] | Wheat plant response rating (0-100) [18, 31] | Galium plant response rating (0 to 100 scale) [20, 32] | Ryegrass, Italian plant response rating (0 to 100 scale) [21, 32] | Blackgrass plant response rating (0 to 100 scale) [27, 32] | Foxtail, Green plant response rating (0 to 100 scale) [28, 32]
98: Plant response rating, Sedge, Umbrella (0 to 100 scale, 0 is no effect and 100 is complete control) [12]
60: Horseweed plant response rating (0-100) [17, 31] | Soybean plant response rating (0-100) [24, 31] | Oat, Wild plant response rating (0 to 100 scale) [25, 32] | Ragweed plant response rating (0-100) [26, 31]
100: Amaranth, Palmer plant response rating (0 to 100 scale) [3, 30] | Foxtail, Green plant response rating (0-100) [11, 29] | Barnyardgrass plant response rating (0-100) [22, 31] | Barnyardgrass plant response rating (0 to 100 scale) [22, 32] | Corn plant response rating (0-100) [23, 31] | Oat, Wild plant response rating (0-100) [25, 31]
20: Corn plant response rating (0 to 100 scale) [6, 30] | Oat, Wild plant response rating (0 to 100 scale) [8, 30] | Horseweed plant response rating (0 to 100 scale) [17, 32]
0: Ryegrass, Italian plant response rating ([4]; 16 g ai/ha, 0 to 100 scale) | Corn plant response rating ([6]; 16 g ai/ha, 0 to 100 scale) | Soybean plant response rating ([7]; 16 g ai/ha, 0 to 100 scale) | Oat, Wild plant response rating ([8]; 16 g ai/ha, 0 to 100 scale) | Ragweed plant response rating ([9]; 16 g ai/ha, 0 to 100 scale) | Ragweed plant response rating (0-100) [9, 29] | Blackgrass plant response rating (0 to 100 scale) [10, 30]
